Data set [1] concerns the target T1, Glucagon-like peptide 1 receptor (Homo sapiens, UniProt P43220). The data set can be described thus: Binding affinity to GLP-1 receptor (unknown origin) assessed as binding rate constant by surface plasmon resonance analysis. As to conditions: filed as activator.
Data set [2] deals with T1, Glucagon-like peptide 1 receptor. Briefly: Binding affinity to GLP-1 receptor (unknown origin) assessed as dissociation rate constant by surface plasmon resonance analysis. As to conditions: filed as activator.
Data set [3] has as its system Mus musculus. The data set can be described thus: Antidiabetic activity in mouse assessed as decrease in AUC (0 to 24hrs) glucose level at 30 nmol/kg, sc measured after 24 hrs. The class given is functional, organism-based.
The test system of data set [4] is Mus musculus. Briefly: Antidiabetic activity in mouse assessed as decrease in blood glucose level at 30 nmol/kg, sc measured after 24 hrs. The class given is functional, organism-based.
The target in data set [5] is T1, Glucagon-like peptide 1 receptor. Briefly: Activation of GLP-1 receptor (unknown origin) expressed in CHO-K1 cells assessed as increase in cAMP accumulation by time-resolved fluorescence resonance energy transfer immunoassay. The class given is functional, cell-based. Background: cAMP levels reflect the balance of adenylyl cyclase and phosphodiesterase activity.

Data set [6] shares this target. Briefly: Binding affinity to GLP-1 receptor (unknown origin) assessed as equlibrium constant by surface plasmon resonance analysis.
For another data set, the target named is Albumin (Homo sapiens, UniProt P02768). The data set can be described thus: Binding affinity to albumin (unknown origin) by HPLC analysis.
Sequence of Albumin (P02768 whole entry): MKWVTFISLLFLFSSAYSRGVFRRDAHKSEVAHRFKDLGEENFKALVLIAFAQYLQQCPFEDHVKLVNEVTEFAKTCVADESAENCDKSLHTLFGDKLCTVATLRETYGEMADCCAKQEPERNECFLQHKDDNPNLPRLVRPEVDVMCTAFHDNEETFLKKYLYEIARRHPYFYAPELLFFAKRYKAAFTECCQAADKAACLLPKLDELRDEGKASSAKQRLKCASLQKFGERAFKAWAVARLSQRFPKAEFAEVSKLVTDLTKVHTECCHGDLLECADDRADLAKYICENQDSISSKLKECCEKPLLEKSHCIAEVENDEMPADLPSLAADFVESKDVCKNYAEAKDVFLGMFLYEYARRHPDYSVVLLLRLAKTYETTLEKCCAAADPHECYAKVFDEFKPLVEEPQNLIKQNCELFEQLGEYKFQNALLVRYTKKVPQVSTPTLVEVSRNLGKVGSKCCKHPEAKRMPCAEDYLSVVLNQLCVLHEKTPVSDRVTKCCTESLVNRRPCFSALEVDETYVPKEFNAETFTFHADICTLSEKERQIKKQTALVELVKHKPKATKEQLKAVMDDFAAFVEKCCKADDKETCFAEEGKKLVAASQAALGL
Data set [7] relates to Mus musculus. The data set can be described thus: Antidiabetic activity in mouse assessed as decrease in body weight at 30 nmol/kg, sc measured after 24 hrs. The class given is functional, organism-based.
Data set [8] has as its target T2, Glucagon-like peptide 1 receptor (Rattus norvegicus) (UniProt P32301).
T2 sequence (whole entry): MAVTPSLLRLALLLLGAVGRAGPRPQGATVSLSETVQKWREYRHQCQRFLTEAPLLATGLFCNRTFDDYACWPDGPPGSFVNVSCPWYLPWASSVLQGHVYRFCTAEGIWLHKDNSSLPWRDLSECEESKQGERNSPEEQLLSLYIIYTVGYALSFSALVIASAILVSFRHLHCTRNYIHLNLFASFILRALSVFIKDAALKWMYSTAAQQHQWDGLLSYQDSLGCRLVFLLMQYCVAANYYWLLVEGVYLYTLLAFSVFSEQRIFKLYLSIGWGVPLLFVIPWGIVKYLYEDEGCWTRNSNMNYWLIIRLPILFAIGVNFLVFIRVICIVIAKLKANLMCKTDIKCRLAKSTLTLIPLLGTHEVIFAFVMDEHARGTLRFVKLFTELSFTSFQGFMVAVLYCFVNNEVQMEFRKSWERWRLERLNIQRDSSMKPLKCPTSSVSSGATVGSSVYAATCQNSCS
Briefly: Activation of GLP-1 receptor in rat INS-1 cells assessed as cAMP accumulation at 10 nmol/L time-resolved fluorescence resonance energy transfer immunoassay. It is filed as functional, cell-based. As to conditions: INS1, filed as activator.

Active and inactive are the calls of the source. The rule behind the calls is not given here. Where a SMILES comes first, the peptide text is derived from it. [ ]: non-standard residue; d: D form. Aun = NCCCCCCCCCCC(=O)O; AEEA = NCCOCCOCC(=O)O; Aib = CC(C)(N)C(=O)O; Aoc = NCCCCCCCC(=O)O A value given as a limit tells only on which side of the number the result lay.

T1 sequence (P43220 whole entry): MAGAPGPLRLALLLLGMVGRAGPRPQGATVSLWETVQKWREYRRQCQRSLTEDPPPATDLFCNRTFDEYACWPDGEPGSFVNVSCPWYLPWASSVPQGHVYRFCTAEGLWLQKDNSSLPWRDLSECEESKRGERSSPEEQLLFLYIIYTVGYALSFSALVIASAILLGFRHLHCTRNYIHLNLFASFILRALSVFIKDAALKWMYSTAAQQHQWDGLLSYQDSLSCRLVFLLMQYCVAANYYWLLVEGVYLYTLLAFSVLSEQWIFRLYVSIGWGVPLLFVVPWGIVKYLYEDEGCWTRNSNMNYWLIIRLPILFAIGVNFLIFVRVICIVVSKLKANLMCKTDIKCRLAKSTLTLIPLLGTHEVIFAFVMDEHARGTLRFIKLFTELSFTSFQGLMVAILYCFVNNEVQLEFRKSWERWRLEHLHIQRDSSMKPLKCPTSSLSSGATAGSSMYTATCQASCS

For the compound “H-[Aib]EGTFTSDVSSYLEGQAAKEFIAWLVKG[Aoc]GVKALIDEILAA-NH2”, in data set [1], the Ka is 2.01 10^4/Ms. The Kdiss in data set [2] was 1.41 10^-2/s. The result in the data set with Mus musculus [3] and in the data set on Mus musculus [4] was Active. Further, the EC50 in data set [5] is 0.204 nM. Further, in data set [6], the Kd was 700 nM. Moreover, the Activity on Albumin worked out at 77.4%.
Turning to `CC[C@H](C)[C@H](NC(=O)[C@H](Cc1ccccc1)NC(=O)[C@H](CCC(=O)O)NC(=O)[C@H](CCCCN)NC(=O)[C@H](C)NC(=O)[C@H](C)NC(=O)[C@H](CCC(N)=O)NC(=O)CNC(=O)[C@H](CCC(=O)O)NC(=O)[C@H](CC(C)C)NC(=O)[C@H](Cc1ccc(O)cc1)NC(=O)[C@H](CO)NC(=O)[C@H](CO)NC(=O)[C@@H](NC(=O)[C@H](CC(=O)O)NC(=O)[C@H](CO)NC(=O)[C@@H](NC(=O)[C@H](Cc1ccccc1)NC(=O)[C@@H](NC(=O)CNC(=O)[C@H](CCC(=O)O)NC(=O)C(C)(C)N)[C@@H](C)O)[C@@H](C)O)C(C)C)C(=O)N[C@@H](C)C(=O)N[C@@H](Cc1c[nH]c2ccccc12)C(=O)N[C@@H](CC(C)C)C(=O)N[C@H](C(=O)N[C@@H](CCCCN)C(=O)NCC(=O)NCC(=O)N[C@H](C(=O)N[C@@H](CCCCN)C(=O)N[C@@H](C)C(=O)N[C@@H](CC(C)C)C(=O)N[C@H](C(=O)N[C@@H](CC(=O)O)C(=O)N[C@@H](CCC(=O)O)C(=O)N[C@H](C(=O)N[C@@H](CC(C)C)C(=O)N[C@@H](C)C(=O)N[C@@H](C)C(N)=O)[C@@H](C)CC)[C@@H](C)CC)C(C)C)C(C)C` (H-[Aib]EGTFTSDVSSYLEGQAAKEFIAWLVKGGVKALIDEILAA-NH2), the Ka in [1] is 2.99 10^3(1/Ms). For the same compound, in data set [2], the Kdiss was 1.12 10^-2/s. The result (in the data set with Mus musculus [3]; in the data set with Mus musculus [4]; in the data set with Mus musculus [7]; in [8]) was Active. For the same compound, the EC50 in data set [5] was 0.0651 nM. In [6], the Kd turned out to be 3750 nM. At Albumin, this compound gave an Activity of 86.2%.
As for “H-[Aib]EGTFTSDVSSYLEGQAAKEFIAWLVKG[Aun][AEEA]GVKALIDEILAA-NH2”, the Ka in data set [1] is 1.32 10^4/Ms. The Kdiss in [2] is 1.97 10^-2/s. For the same compound, the outcome in the data set with Mus musculus [3], in the data set with Mus musculus [4] and with Mus musculus [7] was Active. For the same compound, the EC50 in data set [5] amounted to 0.158 nM. In addition, the Kd in data set [6] came to 1490 nM. In addition, on Albumin, the Activity is given as 76.4%.
Regarding “H-[Aib]EGTFTSDVSSYLEGQAAKEFIAWLVKG[AEEA][AEEA]GVKALIDEILAA-NH2”, in [1], the Ka was 3.57 10^4/Ms. In addition, in [2], the Kdiss is 3.25 10^-2/s. The result in the data set on Mus musculus [3] and in the data set with Mus musculus [4] was Active. Further, the EC50 in data set [5] was 0.17 nM. The Kd in [6] turned out to be 912 nM. At Albumin, this compound gave an Activity of 65.6%.
For the compound “H-[Aib]EGTFTSDVSSYLEGQAAKEFIAWLVKG[AEEA]GVKALIDEILAA-NH2”, the Ka in data set [1] was 1.95 10^4/Ms. In addition, the Kdiss in [2] is 1.94 10^-2/s. For the same compound, the outcome in the data set on Mus musculus [4] was Active. Moreover, the EC50 in data set [5] stood at 0.132 nM. In data set [6], the Kd turned out to be 994 nM. The compound also showed an Activity at Albumin of 75.4%.
For the compound “H-[Aib]EGTFTSDVSSYLEGQAAKEFIAWLVKG[Aun]GVKALIDEILAA-NH2”, the Ka in [1] is 7.53 10^3(1/Ms). Moreover, in data set [2], the Kdiss was 1.1 10^-2/s. The outcome (in the data set on Mus musculus [3]; in the data set with Mus musculus [4]; with Mus musculus [7]; in data set [8]) was Active. In addition, the EC50 in data set [5] was found to be 0.209 nM. The Kd in data set [6] was found to be 1460 nM. Besides, the Activity on Albumin turned out to be 89.2%.
For the compound SEMAGLUTIDE [listing 1 of 2 here], the Activity on Albumin was > 99%.
Consider “H-[Aib]EGTFTSDVSSYLEGQAAKEFIAWLVKG[Aoc][AEEA]GVKALIDEILAA-NH2”, for which the Ka in data set [1] was 3.11 10^4/Ms. Also, in [2], the Kdiss was 1.65 10^-2/s. In addition, the result in the data set with Mus musculus [3] and in the data set on Mus musculus [4] was Active. Further, the EC50 in data set [5] was 0.135 nM. Also, in data set [6], the Kd was found to be 532 nM. Further, the Activity on Albumin worked out at 66.5%.
Consider SEMAGLUTIDE [listing 2 of 2 here], for which the Ka in data set [1] is 7.26 10^4/Ms. In addition, the Kdiss in [2] was 3.2 10^-2/s. For the same compound, the result in the data set with Mus musculus [3] and in the data set with Mus musculus [4] was Active.

As usually defined, the EC50 is the concentration giving half of the maximal effect. Broadly, the Kd is the concentration at which binding is half-saturated.
